Measurements published in ChEMBL document CHEMBL3885881, “DrugMatrix”.

Organism: Rattus norvegicus
Assay: DrugMatrix - Regimen: Daily Repeat
Format: toxicity, organism-based, Sprague-Dawley
Design: regimen Daily Repeat, gender Male, age 6-8 weeks
Conditions: in vivo, po, 1500 mg/kg, route oral GAVAGE, dose level High, vehicle 100 % WATER; for ABSOLUTE BASOPHIL / ABSOLUTE EOSINOPHIL / ABSOLUTE LYMPHOCYTE / ABSOLUTE MONOCYTE / ABSOLUTE SEGMENTED NEUTROPHIL / BASOPHIL / EOSINOPHIL / ERYTHROCYTE COUNT / HEMATOCRIT / HEMOGLOBIN / LEUKOCYTE COUNT / LYMPHOCYTE / MEAN CORPUSCULAR HEMOGLOBIN / MEAN CORPUSCULAR HEMOGLOBIN CONCENTRATION / MEAN CORPUSCULAR VOLUME / MONOCYTE / NEUTROPHIL / NUCLEATED RED BLOOD CELLS / PLATELET COUNT: tissue Blood; for ALANINE AMINOTRANSFERASE / ALBUMIN / ALKALINE PHOSPHATASE / ASPARTATE AMINOTRANSFERASE / BLOOD UREA NITROGEN / CARBON DIOXIDE / CHLORIDE / CHOLESTEROL / CREATINE PHOSPHOKINASE / CREATININE / GLUCOSE / LACTATE DEHYDROGENASE / LIPASE / PHOSPHORUS / POTASSIUM / SODIUM / TOTAL BILIRUBIN / TOTAL PROTEIN / URIC ACID: tissue Plasma

CNCCc1ccccn1 [BETAHISTINE]
ABSOLUTE BASOPHIL (72 h, time 3 day): 0 CELLS/uL
ABSOLUTE EOSINOPHIL (72 h, time 3 day): 56.67 CELLS/uL
ABSOLUTE LYMPHOCYTE (72 h, time 3 day): 8977.33 CELLS/uL
ABSOLUTE MONOCYTE (72 h, time 3 day): 168 CELLS/uL
ABSOLUTE SEGMENTED NEUTROPHIL (72 h, time 3 day): 798 CELLS/uL
BASOPHIL (72 h, time 3 day): 0%
EOSINOPHIL (72 h, time 3 day): 0.67%
ERYTHROCYTE COUNT (72 h, time 3 day): 5.37 x10E6/uL
HEMATOCRIT (72 h, time 3 day): 33.67%
HEMOGLOBIN (72 h, time 3 day): 12.53 G/DL
LEUKOCYTE COUNT (72 h, time 3 day): 10 x10E3/uL
LYMPHOCYTE (72 h, time 3 day): 89.67%
MEAN CORPUSCULAR HEMOGLOBIN (72 h, time 3 day): 23.37 pg
MEAN CORPUSCULAR HEMOGLOBIN CONCENTRATION (72 h, time 3 day): 37.27 G/DL
MEAN CORPUSCULAR VOLUME (72 h, time 3 day): 62.73 fL
MONOCYTE (72 h, time 3 day): 1.67%
NEUTROPHIL (72 h, time 3 day): 8%
NUCLEATED RED BLOOD CELLS (72 h, time 3 day): 0 /100WBC
PLATELET COUNT (72 h, time 3 day): 1427.33 x10E3/uL
ALANINE AMINOTRANSFERASE (72 h, time 3 day): 50 u/L
ALBUMIN (72 h, time 3 day): 4.53 G/DL
ALKALINE PHOSPHATASE (72 h, time 3 day): 288.67 u/L
ASPARTATE AMINOTRANSFERASE (72 h, time 3 day): 71.67 u/L
BLOOD UREA NITROGEN (72 h, time 3 day): 14.33 mg/dL
CARBON DIOXIDE (72 h, time 3 day): 28.33 mmol/L
CHLORIDE (72 h, time 3 day): 105.67 MEQ/L
CHOLESTEROL (72 h, time 3 day): 76.33 mg/dL
CREATINE PHOSPHOKINASE (72 h, time 3 day): 148.67 u/L
CREATININE (72 h, time 3 day): 0.19 mg/dL
GLUCOSE (72 h, time 3 day): 141 mg/dL
LACTATE DEHYDROGENASE (72 h, time 3 day): 118 u/L
LIPASE (72 h, time 3 day): 15.67 u/L
PHOSPHORUS (72 h, time 3 day): 12.33 mg/dL
POTASSIUM (72 h, time 3 day): 6.21 MEQ/L
SODIUM (72 h, time 3 day): 150.8 MEQ/L
TOTAL BILIRUBIN (72 h, time 3 day): 0.2 mg/dL
TOTAL PROTEIN (72 h, time 3 day): 6.07 G/DL
URIC ACID (72 h, time 3 day): 0.87 mg/dL
ABSOLUTE BASOPHIL (120 h, time 5 day): 0 CELLS/uL
ABSOLUTE EOSINOPHIL (120 h, time 5 day): 0 CELLS/uL
ABSOLUTE LYMPHOCYTE (120 h, time 5 day): 10659 CELLS/uL
ABSOLUTE MONOCYTE (120 h, time 5 day): 37.33 CELLS/uL
ABSOLUTE SEGMENTED NEUTROPHIL (120 h, time 5 day): 870.33 CELLS/uL
BASOPHIL (120 h, time 5 day): 0%
EOSINOPHIL (120 h, time 5 day): 0%
ERYTHROCYTE COUNT (120 h, time 5 day): 5.91 x10E6/uL
HEMATOCRIT (120 h, time 5 day): 36.13%
HEMOGLOBIN (120 h, time 5 day): 13.33 G/DL
LEUKOCYTE COUNT (120 h, time 5 day): 11.57 x10E3/uL
LYMPHOCYTE (120 h, time 5 day): 92%
MEAN CORPUSCULAR HEMOGLOBIN (120 h, time 5 day): 22.63 pg
MEAN CORPUSCULAR HEMOGLOBIN CONCENTRATION (120 h, time 5 day): 36.93 G/DL
MEAN CORPUSCULAR VOLUME (120 h, time 5 day): 61.27 fL
MONOCYTE (120 h, time 5 day): 0.33%
NEUTROPHIL (120 h, time 5 day): 7.67%
NUCLEATED RED BLOOD CELLS (120 h, time 5 day): 0 /100WBC
PLATELET COUNT (120 h, time 5 day): 1404.67 x10E3/uL
ALANINE AMINOTRANSFERASE (120 h, time 5 day): 60.67 u/L
ALBUMIN (120 h, time 5 day): 4.2 G/DL
ALKALINE PHOSPHATASE (120 h, time 5 day): 406.33 u/L
ASPARTATE AMINOTRANSFERASE (120 h, time 5 day): 75.67 u/L
BLOOD UREA NITROGEN (120 h, time 5 day): 14 mg/dL
CARBON DIOXIDE (120 h, time 5 day): 25.33 mmol/L
CHLORIDE (120 h, time 5 day): 105.33 MEQ/L
CHOLESTEROL (120 h, time 5 day): 59 mg/dL
CREATINE PHOSPHOKINASE (120 h, time 5 day): 153 u/L
CREATININE (120 h, time 5 day): 0.19 mg/dL
GLUCOSE (120 h, time 5 day): 171 mg/dL
LACTATE DEHYDROGENASE (120 h, time 5 day): 64 u/L
LIPASE (120 h, time 5 day): 8 u/L
PHOSPHORUS (120 h, time 5 day): 13.97 mg/dL
POTASSIUM (120 h, time 5 day): 5.7 MEQ/L
SODIUM (120 h, time 5 day): 146.6 MEQ/L
TOTAL BILIRUBIN (120 h, time 5 day): 0.27 mg/dL
TOTAL PROTEIN (120 h, time 5 day): 5.9 G/DL
URIC ACID (120 h, time 5 day): 2.07 mg/dL
